Results: ChEMBL document CHEMBL5260816, “Synthesis and biological evaluation of the natural product komaroviquinone and related compounds aiming at a potential therapeutic lead compound for high-risk multiple myeloma” (Bioorg Med Chem Lett, 2017)

How the values were obtained:
[1] = Cytotoxicity against human MUM24 cells assessed as reduction in cell viability incubated for 48 hrs by MTT assay; assay type: functional, cell-based; conditions: MUM24, 48 h
[2] = Toxicity in ICR mouse bone marrow cells assessed as inhibition of cell differentiation incubated for 14 days by colony forming cell assay; assay type: cell-based; conditions: 336 h, time 14 day
[3] = Toxicity in ICR mouse bone marrow cells assessed as inhibition of cell differentiation at higher concentration incubated for 14 days by colony forming cell assay; assay type: cell-based; conditions: 336 h, time 14 day
[4] = Toxicity in ICR mouse bone marrow cells assessed as inhibition of cell differentiation at 1 uM incubated for 14 days by colony forming cell assay; assay type: cell-based; conditions: 336 h, time 14 day

| Structure (SMILES) | IC50 [1] | further results |
| --- | --- | --- |
| COc1cc(C[C@@]23CCCC(C)(C)[C@@H]2CC(=O)O3)c(OC)c(OC)c1C(C)C | 4.97 µM |  |
| COC1=C(C(C)C)C(=O)C=C(C[C@@]23CCCC(C)(C)[C@@H]2CC(=O)O3)C1=O | < 3 µM |  |
| COC1=C(C(C)C)C(=O)C=C(Cc2ccccc2)C1=O | < 3 µM |  |
| COC1=C(C(C)C)C(=O)C=C(CNC(=O)C2CCCCC2)C1=O | < 3 µM |  |
| COC1=C(C(C)C)C(=O)C=C(COC(C)C)C1=O | < 3 µM |  |
| COC1=C(C(C)C)C(=O)C=C(COC(Cn2cncn2)c2ccc(F)cc2F)C1=O (centres undefined) | 3.31 µM |  |
| COC1=C(C(C)C)C(=O)C=C(CC(O)(Cn2cncn2)c2ccc(F)cc2F)C1=O (centres undefined) | 2.49 µM | Activity [2]: Toxic |
| COc1c2c(c(OC)c(C(C)C)c1OC)C(=O)CCC2 | > 30 µM |  |
| COc1c(O)c2c(c(O)c1C(C)C)C(=O)C[C@H]1C(C)(C)CCC[C@]1(O)C2 | 6.13 µM | Activity [2]: Toxic |
| COc1cc(CC(O)(Cn2cncn2)c2ccc(F)cc2F)c(OC)c(OC)c1C(C)C (centres undefined) | 9.85 µM | Activity [3]: Non-Toxic |
| COc1c2c(c(OC)c(C(C)C)c1OC)C(=O)CCCC2 | > 30 µM |  |
| COC1=C(C(C)C)C(=O)c2ccc(-c3ccccc3)nc2C1=O | 4.12 µM |  |
| COc1c(OC(C)=O)c2c(c(OC(C)=O)c1C(C)C)C(=O)C[C@H]1C(C)(C)CCC[C@]1(O)C2 | 19.4 µM |  |
| COc1c2c(c(OC)c(C(C)C)c1OC)C(=O)C[C@H]1C(C)(C)CCC[C@]1(O)C2 | > 10 µM |  |
| COc1cc(CC2=CCCC(C)(C)[C@@H]2CC(=O)O)c(OC)c(OC)c1C(C)C | > 10 µM |  |
| COc1c(OC(C)=O)c2c(c(O)c1C(C)C)C(=O)C[C@H]1C(C)(C)CCC[C@]1(O)C2 | 12.5 µM |  |
| COC1=C(C(C)C)C(=O)c2cc3c(nc2C1=O)CCCC3 | 1.39 µM |  |
| COc1cc(COC(Cn2cncn2)c2ccc(F)cc2F)c(OC)c(OC)c1C(C)C (centres undefined) | 7 µM | Activity [3]: Non-Toxic |
| COC1=C(C(C)C)C(=O)C2=C(C[C@@]34CCCC(C)(C)[C@@H]3C[C@]2(O)O4)C1=O [KOMAROVIQUINONE] | 0.65 µM | Activity [4]: Toxic |
